Source: PubChem BioAssay (NCI)
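These data come from cells grown in 96-well plates and exposed to compound for 48 hours at five concentrations. TGI marks complete inhibition of growth.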

Columns and labels:
Assay in all cases: DTP human tumour cell line panel, 48 h
[1] = tested on: RPMI-8226 leukemia
[2] = tested on: NCI/ADR-RES ovarian
[3] = tested on: UO-31 renal
[4] = tested on: 786-0 renal
[5] = tested on: MOLT-4 leukemia
[6] = tested on: T-47D breast
[7] = tested on: MCF7 breast
[8] = tested on: SK-MEL-2 melanoma
[9] = tested on: SK-MEL-28 melanoma
[10] = tested on: CAKI-1 renal
[11] = tested on: EKVX NSCLC
[12] = tested on: LOX IMVI melanoma
[13] = tested on: A549 NSCLC
[14] = tested on: KM12 colon
[15] = tested on: HOP-92 NSCLC
[16] = tested on: HCT-116 colon
[17] = tested on: DU-145 prostate
[18] = tested on: SW-620 colon
[19] = tested on: HS 578T breast
[20] = tested on: SF-295 CNS
[21] = tested on: BT-549 breast
[22] = tested on: NCI-H522 lung
[23] = tested on: U251 CNS
[24] = tested on: SF-539 CNS
[25] = tested on: IGROV1 ovarian
[26] = tested on: OVCAR-8 ovarian
[27] = tested on: K-562 leukemia
[28] = tested on: SN12C renal
[29] = tested on: TK-10 renal
[30] = tested on: SNB-75 CNS
[31] = tested on: SR leukemia
[32] = tested on: OVCAR-5 ovarian
[33] = tested on: OVCAR-4 ovarian
[34] = tested on: MALME-3M melanoma
[35] = tested on: HCT-15 colon
[36] = tested on: NCI-H23 lung
[37] = tested on: MDA-MB-435
[38] = tested on: MDA-MB-231 breast
[39] = tested on: NCI-H226 lung
[40] = tested on: RXF 393 renal
[41] = tested on: SK-OV-3 ovarian
[42] = tested on: MDA-N
[43] = tested on: HL-60(TB) leukemia
[44] = tested on: UACC-257 melanoma
[45] = tested on: UACC-62 melanoma
[46] = tested on: NCI-H460 lung
[47] = tested on: HOP-62 NSCLC
[48] = tested on: A498 renal
[49] = tested on: ACHN renal
[50] = tested on: OVCAR-3 ovarian
[51] = tested on: M14 melanoma
[52] = tested on: SF-268 CNS
[53] = tested on: CCRF-CEM leukemia
[54] = tested on: SNB-19 CNS
[55] = tested on: HT29 colon
[56] = tested on: COLO 205 colon
[57] = tested on: PC-3 prostate
[58] = tested on: HCC-2998 colon
[59] = tested on: SK-MEL-5 melanoma

Compound `Cc1ccc(NC(=O)/C(Cc2cc(=O)oc3cc(O)ccc23)=N\NC(=O)C[N+](C)(C)C)cc1C` has a TGI [1] greater than 100 µM, a TGI [2] greater than 100 µM and a TGI [3] greater than 100 µM. It also gave a TGI [4] greater than 100 µM, a TGI [5] greater than 100 µM and a TGI [6] greater than 100 µM. For the same compound, the TGI [7] was greater than 100 µM, the TGI [8] was greater than 100 µM and the TGI [9] was greater than 100 µM. It also gave a TGI [10] greater than 100 µM, a TGI [11] greater than 100 µM and a TGI [12] greater than 100 µM. It also gave a TGI [13] greater than 100 µM, a TGI [14] greater than 100 µM and a TGI [15] greater than 100 µM. It also gave a TGI [16] greater than 100 µM, a TGI [17] greater than 100 µM and a TGI [18] greater than 100 µM. For the same compound, the TGI [19] was greater than 100 µM, the TGI [20] was greater than 100 µM and the TGI [21] was greater than 100 µM. It also gave a TGI [22] greater than 100 µM, a TGI [23] greater than 100 µM and a TGI [24] greater than 100 µM. It also gave a TGI [25] greater than 100 µM, a TGI [26] greater than 100 µM and a TGI [27] greater than 100 µM. The TGI [28] was greater than 100 µM, the TGI [29] was greater than 100 µM and the TGI [30] was greater than 100 µM. For the same compound, the TGI [31] was greater than 100 µM, the TGI [32] was greater than 100 µM and the TGI [33] was greater than 100 µM. For the same compound, the TGI [34] was greater than 100 µM, the TGI [35] was greater than 100 µM and the TGI [36] was greater than 100 µM. For the same compound, the TGI [37] was greater than 100 µM, the TGI [38] was greater than 100 µM and the TGI [39] was greater than 100 µM. For the same compound, the TGI [40] was greater than 100 µM, the TGI [41] was greater than 100 µM and the TGI [42] was greater than 100 µM. The TGI [43] was greater than 100 µM, the TGI [44] was greater than 100 µM and the TGI [45] was greater than 100 µM. The TGI [46] was greater than 100 µM, the TGI [47] was greater than 100 µM and the TGI [48] was greater than 100 µM. For the same compound, the TGI [49] was greater than 100 µM, the TGI [50] was greater than 100 µM and the TGI [51] was greater than 100 µM. For the same compound, the TGI [52] was greater than 100 µM, the TGI [53] was greater than 100 µM and the TGI [54] was greater than 100 µM. For the same compound, the TGI [55] was greater than 100 µM, the TGI [56] was greater than 100 µM and the TGI [57] was greater than 100 µM. The TGI [58] was greater than 100 µM and the TGI [59] was greater than 100 µM.
Compound `CC1OC(c2ccc3c(c2O)C(=O)C2=C(C3=O)C3(O)C(=O)CC(C)(O)CC3(O)C=C2)CC(O)C1O` (stereo not drawn) has a TGI [1] of 48.1 µM, a TGI [2] of 51.8 µM and a TGI [3] of 36.9 µM. For the same compound, the TGI [4] was 33.6 µM, the TGI [5] was 15.3 µM and the TGI [6] was 28.3 µM. It also gave a TGI [7] of 9 µM, a TGI [8] of 42.4 µM and a TGI [9] of 29.4 µM. It also gave a TGI [10] of 19.7 µM, a TGI [11] of 33.9 µM and a TGI [12] of 30.9 µM. The TGI [13] was greater than 73.5 µM, the TGI [14] was greater than 60.6 µM and the TGI [15] was 30.7 µM. For the same compound, the TGI [16] was 17.5 µM, the TGI [17] was 29.1 µM and the TGI [18] was 21.7 µM. The TGI [19] was 53.2 µM, the TGI [20] was 34.2 µM and the TGI [21] was 32.8 µM. It also gave a TGI [22] of 5.86 µM, a TGI [23] of 31.4 µM and a TGI [24] of 35.6 µM. For the same compound, the TGI [25] was 27.9 µM, the TGI [26] was 51.5 µM and the TGI [27] was 14.3 µM. It also gave a TGI [28] of 28.2 µM, a TGI [29] of 28.6 µM and a TGI [30] of 48.7 µM. The TGI [31] was 33.5 µM, the TGI [32] was 31.8 µM and the TGI [33] was 27.2 µM. It also gave a TGI [34] of 12.8 µM, a TGI [35] of 29.7 µM and a TGI [36] of 45.6 µM. The TGI [37] was greater than 42.5 µM, the TGI [38] was 6.17 µM and the TGI [39] was 49.8 µM. It also gave a TGI [40] of 26.8 µM, a TGI [41] greater than 100 µM and a TGI [42] of 11.7 µM. It also gave a TGI [43] of 4.07 µM, a TGI [44] of 29.3 µM and a TGI [45] of 30.4 µM. The TGI [46] was greater than 64.9 µM, the TGI [47] was 60.7 µM and the TGI [48] was 34.5 µM. For the same compound, the TGI [49] was 26.5 µM, the TGI [50] was 15.8 µM and the TGI [51] was 30.7 µM. It also gave a TGI [52] greater than 60 µM, a TGI [53] of 5.27 µM and a TGI [54] of 58.8 µM. It also gave a TGI [55] of 19.6 µM, a TGI [56] of 3.39 µM and a TGI [57] of 65.7 µM. The TGI [58] was 31.7 µM and the TGI [59] was 22.9 µM.
